Assay results: ChEMBL document CHEMBL1268906, “Discovery of a potent and selective Bcl-2 inhibitor using SAR by NMR” (Bioorg Med Chem Lett, 2010)

Key:
[1] = target: T1, Apoptosis regulator Bcl-2 (Homo sapiens, UniProt P10415); test: Inhibition of Bcl-2 by fluorescence polarization assay
[2] = target: T1, Apoptosis regulator Bcl-2; test: Binding affinity to Bcl-2 by NMR titration assay in presence of 500 uM 1,1-bis(4-chlorophenyl)-3-(dimethylamino)propan-1-ol
[3] = target: T1, Apoptosis regulator Bcl-2; test: Binding affinity to Bcl-2 by NMR titration assay
[4] = Selectivity ratio of Kd for Bcl-XL to Kd for Bcl-2
Bcl-2-like protein 1 = Bcl-2-like protein 1 (Homo sapiens, UniProt Q07817); test: Binding affinity to Bcl-XL by NMR titration assay
Bcl-2-like protein 1, sequence (Q07817 whole entry): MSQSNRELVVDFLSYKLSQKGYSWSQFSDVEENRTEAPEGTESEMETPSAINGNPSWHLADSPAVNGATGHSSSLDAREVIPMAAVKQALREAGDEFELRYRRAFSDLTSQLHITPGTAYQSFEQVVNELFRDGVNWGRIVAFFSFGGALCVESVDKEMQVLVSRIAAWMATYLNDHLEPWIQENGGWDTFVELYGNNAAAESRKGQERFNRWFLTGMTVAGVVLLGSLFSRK

T1 sequence (P10415 whole entry): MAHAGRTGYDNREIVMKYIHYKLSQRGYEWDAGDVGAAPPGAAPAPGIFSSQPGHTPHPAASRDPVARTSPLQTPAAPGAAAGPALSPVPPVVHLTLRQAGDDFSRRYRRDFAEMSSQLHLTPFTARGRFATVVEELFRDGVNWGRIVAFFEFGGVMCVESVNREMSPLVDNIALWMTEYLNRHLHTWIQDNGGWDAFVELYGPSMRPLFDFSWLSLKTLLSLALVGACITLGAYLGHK

Row | SMILES | Ki [1] [µM] | Kd [3] [µM] | other results
1 | CCc1ccc(-c2ccc(C(=O)O)cc2)cc1 | – | 300 | Kd [2]: > 1000 µM
2 | CCc1cccc(-c2ccc(C(=O)O)cc2)c1 | – | 100 | Kd [2]: 20 µM
3 | CN(C)CCCC(O)(c1ccc(Cl)cc1)c1ccc(Cl)cc1 | – | 20 | Selectivity ratio [4]: 20; Kd (Bcl-2-like protein 1): 450 µM
4 | CN(C)CCC[C@@](O)(c1ccccc1)c1ccc(Cl)cc1 | – | 80 | Kd (Bcl-2-like protein 1): 500 µM
5 | CN1CCN(C(c2ccccc2)c2ccc(Cl)cc2)CC1 (stereo not drawn) [CHLORCYCLIZINE] | – | 60 | Kd (Bcl-2-like protein 1): 700 µM
6 | CN(C)CCCC(O)(c1ccccc1)c1cccc(OCCc2cccc(-c3ccc(C(=O)O)cc3)c2)c1 (stereo not drawn) | 5 | – | –
7 | CN(C)CCCC(O)(c1ccccc1)c1cccc(OCc2cccc(-c3ccc(C(=O)O)cc3)c2)c1 (stereo not drawn) | 20 | – | –
8 | CN(C)CCCC(O)(c1ccccc1)c1ccccc1 | – | 200 | Kd (Bcl-2-like protein 1): 5000 µM
9 | O=C(O)c1ccc(-c2ccc(F)cc2)cc1 | – | 400 | Kd [2]: 430 µM
10 | CN(C)CCCC(O)(c1ccccc1)c1ccc(OCc2cccc(-c3ccc(C(=O)O)cc3)c2)cc1 (stereo not drawn) | 5.8 | – | –
11 | CN(C)CCCC(O)(c1ccccc1)c1cccc(OCc2ccc(-c3ccc(C(=O)O)cc3)cc2)c1 (stereo not drawn) | 5.2 | – | –
12 | NC[C@](O)(c1ccccc1)c1ccc(F)cc1Cl | – | 250 | –

The next lines start with results.

Row | Ki [1] [µM] | Kd [3] [µM] | SMILES | other results
13 | 12 | – | CN(C)CCCC(O)(c1ccccc1)c1ccc(OCCc2ccc(-c3ccc(C(=O)O)cc3)cc2)cc1 (stereo not drawn) | –
14 | 0.2 | – | O=C(O)c1ccc(-c2ccc(OCCc3cc(C(O)(CCN4CCOCC4)c4ccc(Br)cc4)ccc3Cl)cc2)cc1 (stereo not drawn) | –
15 | 83 | – | CN(C)CCCC(O)(c1ccccc1)c1ccc(OCc2ccc(-c3ccc(C(=O)O)cc3)cc2)cc1 (stereo not drawn) | –
16 | > 1 | – | CN(C)CCCC(O)(c1ccccc1)c1cccc(OCCOc2ccc(-c3ccc(C(=O)O)cc3)cc2)c1 (stereo not drawn) | –
17 | 0.22 | – | O=C(O)c1ccc(-c2ccc(OCCc3cc(C(O)(CCN4CCOCC4)c4ccc(Cl)cc4)ccc3Cl)cc2)cc1 (stereo not drawn) | –
18 | 0.04 | – | CC(C)(C)c1ccc(C(O)(CCN2CCCC2)c2ccc(Cl)c(CCOc3ccc(-c4ccc(C(=O)O)cc4)cc3)c2)cc1 (stereo not drawn) | Selectivity ratio [4]: 1000
19 | > 1 | – | CN(C)CCCC(O)(c1ccccc1)c1ccc(OCCOc2ccc(-c3ccc(C(=O)O)cc3)cc2)cc1 (stereo not drawn) | –
20 | 0.46 | – | CC(O)(c1ccc(Cl)cc1)c1ccc(Cl)c(CCOc2ccc(-c3ccc(C(=O)O)cc3)cc2)c1 (stereo not drawn) | –
21 | 4.6 | – | CN(C)CCCC(O)(c1ccccc1)c1cccc(OCCc2ccc(-c3ccc(C(=O)O)cc3)cc2)c1 (stereo not drawn) | –
22 | 0.11 | – | CC(C)(C)c1ccc(C(O)(CCN2CCOCC2)c2ccc(Cl)c(CCOc3ccc(-c4ccc(C(=O)O)cc4)cc3)c2)cc1 (stereo not drawn) | –
23 | 3.4 | – | CN(C)CCCC(O)(c1ccccc1)c1cccc(CCOc2ccc(-c3ccc(C(=O)O)cc3)cc2)c1 (stereo not drawn) | –
24 | 8 | – | CN(C)CCCC(O)(c1ccccc1)c1ccc(OCCc2cccc(-c3ccc(C(=O)O)cc3)c2)cc1 (stereo not drawn) | –
